From patent publication US11104648B2, “Pyrazole derivative” (Zhejiang Research Institute of Chemical Industry Co., Ltd., priority 2018, dated 2021)
Read-outs that look alike come from different tables or passages of the source.

Assays:
Type in all cases: in vivo
[1] = test system: Eggs of Tetranychus Cinnabarinus; experiment: Activity assay of eggs of Tetranychus cinnabarinus (spray method, ovicidal); settings: for pest or weed control at 5 µg/mL / pest or weed control at 2 µg/mL: Tetranychus cinnabarinus; for pest or weed control at 5 µg/mL: concentration 5 mg/L, non-incubated eggs counted as dead
Experimental: According to the solubility of the test compound, the crude drug was dissolved in N N-dimethylformamide, and then prepared into a test solution of the desired concentration with 1‰ Tween 80 aqueous solution. The content of N. N-dimethylformamide in the solution should not exceed 10%.
Spray method. The broad bean leaves with petioles were cut and inserted into a bottle with water. A certain number of female mites were placed, 24h later, adult mites were removed, and spray treatment was performed in 24 h. The experiment was repeated three times, and a blank control was set, and placed to an observation room (26±2° C., humidity 70%˜80%, 16h light per day) for culture. When the blank control group was incubated, the results were investigated. The non-incubated ones were used as death for investigation.

[2] = test system: adult Tetranychus cinnabarinus; experiment: Activity assay of adult Tetranychus cinnabarinus (whole-plant spray on bean seedlings); settings: 48 h; for pest or weed control at 2.5 µg/mL: concentration 2.5 mg/L; for pest or weed control at 1.25 µg/mL: concentration 1.25 mg/L
Experimental: According to the solubility of the test compound, the crude drug was dissolved in N, N-dimethlfornamide, and then prepared into a test solution of the desired concentration with 1‰ Tween 80 aqueous solution. The content of N,N-dimethylformamide in the solution should not exceed 10%.
Two euphylla bean seedlings were taken, after inoculated with adult Tetranychus cinnabarinus and the base number was investigated, whole plants were sprayed with a hand-held sprayer. The experiment was repeated three times for each treatment, after treatment, placed in a standard observation room after treatment, to investigate the survival number of mites in 48 hand calculate the death rate.

[3] = test system: Tetranychus cinnabarinus Nymphs; experiment: Activity assay of Tetranychus cinnabarinus nymphs (spray on broad bean leaves); settings: 48 h; for pest or weed control at 2.5 µg/mL: concentration 2.5 mg/L; for pest or weed control at 0.5 µg/mL: concentration 0.5 mg/L
Experimental: According to the solubility of the test compound, the crude drug was dissolved in N, N-dimethylformamide, and then prepared into a test solution of the desired concentration with 1‰ Tween 80 aqueous solution. The content of N,N-dimethylformamide in the solution should not exceed 10%.
The broad bean leaves with petioles were cut and inserted into a small bottle with water. A certain number of brightly colored, active female adult mites were placed, 24h later, adult mites were removed, and leaves with insufficient eggs were removed. When eggs were hatched and grew into nymphs, spray treatment was performed. The experiment was repeated three times, and a blank control was set, and placed to an observation room (26±2° C., humidity 70%˜80%, 16h light per day) for culture. 48 h later, the results were investigated. The nymphs were gently touched during investigation, and if no response, they were regarded as deaths.

[4] = spray, read-out: ovicidal activity
[5] = read-out: adult mite-killing activity
[6] = read-out: nymph-killing activity
[7] = concentration 2 mg/L, spray, read-out: ovicidal activity
[8] = eggs, concentration 2 mg/L, parallel determination, read-out: Death rate (%)
[9] = adult mites, parallel determination, read-out: Death rate (%)
[10] = nymphs, parallel determination, read-out: Death rate (%)

Compound	Death rate (%) ([1]; eggs, concentration 2 mg/L, parallel determination)	pest or weed control at 5 µg/mL [1, 4]	pest or weed control at 2.5 µg/mL [2, 5]	pest or weed control at 2.5 µg/mL [3, 6]	pest or weed control at 2 µg/mL [1, 7]	pest or weed control at 2 µg/mL [1, 8]	pest or weed control at 1.25 µg/mL [2, 9]	pest or weed control at 1.25 µg/mL [2, 5]	pest or weed control at 0.5 µg/mL [3, 6]	pest or weed control at 0.5 µg/mL [3, 10]
COC(=O)OC(C)O/C(=C(/C#N)c1ccc(C(C)(C)C)cc1)c1c(Cl)c(C)nn1C (racemic) [Compound 675]	100%									
CC(=O)OCO/C(=C(/C#N)c1ccc(C(C)(C)C)cc1)c1cc(C)nn1C [Compound 1]		≥ 90%	≥ 90%	≥ 95%						
CCC(=O)OCO/C(=C(/C#N)c1ccc(C(C)(C)C)cc1)c1cc(C)nn1C [Compound 2]		≥ 90%	≥ 90%	≥ 95%						
CCCC(=O)OCO/C(=C(/C#N)c1ccc(C(C)(C)C)cc1)c1cc(C)nn1C [Compound 3]		≥ 90%	≥ 90%	≥ 95%						
Cc1cc(/C(OCOC(=O)C(C)C)=C(\C#N)c2ccc(C(C)(C)C)cc2)n(C)n1 [Compound 4]		≥ 90%	≥ 90%	≥ 95%						
Cc1cc(/C(OCOC(=O)C(C)(C)C)=C(\C#N)c2ccc(C(C)(C)C)cc2)n(C)n1 [Compound 5]		≥ 90%	≥ 90%	≥ 95%						
CCCCC(=O)OCO/C(=C(/C#N)c1ccc(C(C)(C)C)cc1)c1cc(C)nn1C [Compound 6]		≥ 90%	≥ 90%	≥ 95%						
Cc1cc(/C(OCOC(=O)CC(C)C)=C(\C#N)c2ccc(C(C)(C)C)cc2)n(C)n1 [Compound 7]		≥ 90%	≥ 90%	≥ 95%						
CC(C)(C)C(=O)OCOC(=C(C#N)c1ccc(C(C)(C)C)cc1)c1ccccc1C(F)(F)F [Compound 8-1, reference compound]		< 30%	< 80%	< 80%	0%	0%	45%	< 50%	< 30%	25%
CC(=O)OCOC(=C(C#N)c1ccc(C(C)(C)C)cc1)c1ccccc1C(F)(F)F [Compound 8-2, reference compound]		< 30%	< 80%	< 80%	0%	0%	30%	< 50%	< 30%	0%
CCCC(=O)OC(C)OC(=C(C#N)c1ccc(C(C)(C)C)cc1)c1ccccc1C(F)(F)F (stereo not shown) [Compound 8-3, reference compound]		< 30%	< 80%	< 80%	0%	0%	45%	< 50%	< 30%	30%
CCCC(=O)OCOC(=C(C#N)c1ccc(C(C)(C)C)cc1)c1ccccc1C(F)(F)F [Compound 8-4, reference compound]		< 30%	< 80%	< 80%	0%	0%	50%	< 50%	< 30%	15%
COCC(=O)OCO/C(=C(/C#N)c1ccc(C(C)(C)C)cc1)c1cc(C)nn1C [Compound 8]		≥ 90%	≥ 90%	≥ 95%						
Cc1cc(/C(OCOC(=O)C2CC2)=C(\C#N)c2ccc(C(C)(C)C)cc2)n(C)n1 [Compound 9]		≥ 90%	≥ 90%	≥ 95%						
CSCC(=O)OCO/C(=C(/C#N)c1ccc(C(C)(C)C)cc1)c1cc(C)nn1C [Compound 10]		≥ 90%	≥ 90%	≥ 95%						
